Patent publication US6436631B1, “Comparative phenotype analysis for assessment of biologically active compounds such as antimicrobials” (priority 2000, dated 2002)
Where a SMILES comes first, the peptide text is derived from it.

Columns and labels:
[1] = tested on: E. coli (MG1655); test: BAC combination (synergy/antagonism) testing in ES1, ES2 and ES3 MicroPlate sensitivity panels, tetrazolium violet; type: cell-based
Protocol: In this Example, the susceptibility of E. coli (MG1655) was tested in the presence of vancomycin (10 μg/ml) or sulfamethoxazole (235 μg/ml) in microarrays containing various additional compounds. The microarrays were present in three Biolog™ sensitivity test panels, referred to as ES1, ES2 and ES3 MicroPlates™. The organisms were added to a sterile aqueous suspension containing 0.40% NaCl, 0.03% pluronic F68, 0.01% phytagel, and 0.01% tetrazolium violet, to a cell density of 85% transmittance (as measured using a BiologTm turbidimeter). The BAC to be tested was added to the suspension just prior to inoculating the organisms (100 μl/well) into the wells of the microarrays. The wells of these ES MicroPlates™ contained a basal broth medium consisting of tryptone (2 g/L), yeast extract (1 g/L), and NaCl (1 g/L). […]

[2] = tested on: E. coli MG1655; test: phenotype microarray (PM) comparative profiling of antimicrobials, S-O-R scoring, distance matrix and dendrogram; type: cell-based; conditions: 7 PMs; for clustering in dendrogram of PM S-O-R response (FIG. 4): 1x level of each antimicrobial (lowest concentration giving detectable inhibition of respiration), 665 phenotypes, 48 hours; for PM response pattern (fingerprint) of cells exposed to the antimicrobial: partially inhibitory concentrations (1x, 2x)
Description: In this Example, experiments are described in which the feasibility of using PMs for analyzing the metabolic effects of antimicrobial compounds and their mechanisms of action were investigated. Specifically, the experiments were designed to determine whether compounds that act via interaction with specific bacterial proteins (“target-specific”) can be distinguished from those acting via non-specific mechanisms, solely on the basis of differences in signature metabolic profiles. In addition, the experiments were designed to determine whether different interactors of the same pathway produce a similar signature profile, as well as whether interactors of different pathways produce distinctly different profiles.
Twenty chemicals were selected for inclusion in these experiments. Fifteen of these, listed below in Table 3 as “single target antimicrobials” are thought to have relatively specific modes of action, whereas five antimicrobials, listed as “multiple target antimicrobials” are thought to have non-specific modes of action.
An initial set of experiments was performed to select the concentrations of each chemical as it was desirable to use a partially inhibitory concentration. A completely inhibitory or sub-inhibitory concentration would not provide any information. Partial inhibitory levels were determined using the criterion of decreased formation of purple color due to inhibition of tetrazolium violet reduction (i.e., respiration). Each compound was tested at two concentrations giving partial inhibition of respiration. The lower concentration, referred to as “1x,” was the lowest concentration giving detectable inhibition of respiration. The higher concentration, referred to as “2x,” was twice the 1x concentration. […] Thus, only 1x and 2x concentrations were used.
In these experiments, E. coli MG1655 was tested against 20 antimicrobials at two concentrations using 7 PMs each, for a total of 280 PMs. […] Since in these experiments each PM contains 95 phenotypes, the total number of phenotypes analyzed here was 26,600. Each PM was monitored kinetically every 15 minutes using a specialized instrument described is U.S. patent application Ser. No. 09/277,353 (herein incorporated by reference) for an incubation duration of 48 hours. Thus, the total number of data points for the experiments was 5,107,200.
The results of the data collected for a run is a kinetic phenotype of the cell exposed to an antimicrobial overlaid and compared against the phenotype of the cell without exposure to the antimicrobial. When the two kinetic tracings of tetrazolium reduction (i.e., cell respiration) overlap, there is no difference in the response to that phenotype (indicated as “O”). When the control tracing exceeds the antimicrobial tracing, the organism is scored as “more sensitive” or “S.” When the antimicrobial tracing exceeds the control tracing, the organism is scored as “more resistant,” or “R.” Based on visual examination of the PMs after incubation, the threshold values for judging S and R results were determined. The software then automatically calculated the areas under the differential tracings and applied threshold values to score all 26,600 phenotypes as S, O, or R.
From the S—O—R data, a distance matrix was generated. The S—O—R response (a string of 665 values) for one antimicrobial was compared to the response for another antimicrobial, and the differences summed up. A difference of O to S or of O to R was assigned a value of 1, and a difference of S to R was assigned a value of 2. The string of 665 differences was then summed up.

For O=C(Cc1cccs1)N[C@@H]1C(=O)N2C(C(=O)[O-])=C(C[n+]3ccccc3)CS[C@H]12 [cephaloridine], the “change of sensitivity of E. coli strain to panel compound” value (“change of sensitivity of E. coli strain” below) ([1]; in the presence of 235 μg/ml sulfamethoxazole, cephaloridine at 0.75, 1.5, 3.0 and 6.0 μg/ml) was “increased sensitivity”.

For CC[C@H](C)[C@H](N)C1=N[C@H](C(=O)N[C@@H](CC(C)C)C(=O)N[C@H](CCC(=O)O)C(=O)N[C@H](C(=O)N[C@H]2CCCCNC(=O)[C@H](CC(N)=O)NC(=O)[C@@H](CC(=O)O)NC(=O)[C@H](Cc3cnc[nH]3)NC(=O)[C@@H](Cc3ccccc3)NC(=O)[C@H]([C@@H](C)CC)NC(=O)[C@@H](CCCN)NC2=O)[C@@H](C)CC)CS1 [bacitracin] (HELM PEPTIDE1{[CC[C@H](C)[C@H](N)C1=N[C@H](C(=O)[*:2])CS1].L.[dE].I.K.[NCCC[C@@H](N[*:1])C(=O)[*:2]].I.[dF].H.[dD].N}$PEPTIDE1,PEPTIDE1,5:R3-11:R2$$$V2.0), the “clustering in dendrogram of PM S-O-R response (FIG. 4)” value (from here on “clustering in dendrogram”) [2] was “cluster”.

NC(=O)c1cc[n+](CC2=C(C(=O)O)N3C(=O)[C@@H](NC(=O)[C@@H](c4ccccc4)S(=O)(=O)[O-])[C@H]3SC2)cc1 [cefsulodin] was tested, and the “change of sensitivity of E. coli strain” value ([1]; in the presence of 235 μg/ml sulfamethoxazole, cefsulodin at 8 and 16 μg/ml) was “increased sensitivity”.

For C[C@@H]1O[C@@H]1P(=O)(O)O [phosphomycin], the “clustering in dendrogram” value [2] was “cluster”.

With [H]/N=C(/N)N[C@H]1[C@H](O)[C@@H](O)[C@H](O[C@@H]2O[C@@H](C)[C@](O)(C=O)[C@H]2O[C@@H]2O[C@@H](CO)[C@H](O)[C@@H](O)[C@@H]2NC)[C@@H](N/C(N)=N\[H])[C@@H]1O [streptomycin] the “clustering in dendrogram” value [2] was “cluster”.

With CC1(C)S[C@@H]2[C@H](NC(=O)[C@H](N)c3ccccc3)C(=O)N2[C@H]1C(=O)O [ampicillin] the “clustering in dendrogram” value [2] was “cluster”.

CO[C@@H]1[C@@H](OC(N)=O)[C@@H](O)[C@H](Oc2ccc3c(O)c(NC(=O)c4ccc(O)c(CC=C(C)C)c4)c(=O)oc3c2C)OC1(C)C [novobiocin] was tested, and the “change of sensitivity of E. coli strain” value ([1]; in the presence of 10 μg/ml vancomycin, novobiocin at 33 and 66 μg/ml) was “increased sensitivity” and the “change of sensitivity of E. coli strain” value ([1]; in the presence of 235 μg/ml sulfamethoxazole, novobiocin at 66 and 133 μg/ml) was “increased resistance”.

For N[C@@H](C(=O)N[C@@H]1C(=O)N2C(C(=O)O)=C(Cl)CS[C@H]12)c1ccccc1 [cefaclor], the “change of sensitivity of E. coli strain” value ([1]; in the presence of 235 μg/ml sulfamethoxazole, cefaclor at 1.33, 2.66 and 5.33 μg/ml) was “increased sensitivity”.

Cc1nnc(SCC2=C(C(=O)O)N3C(=O)[C@@H](NC(=O)Cn4cnnn4)[C@H]3SC2)s1 [cefazolin] was tested, and the “change of sensitivity of E. coli strain” value ([1]; in the presence of 10 μg/ml vancomycin, cefazolin at 2.0 and 4.0 μg/ml) was “increased sensitivity” and the “change of sensitivity of E. coli strain” value ([1]; in the presence of 235 μg/ml sulfamethoxazole, cefazolin at 0.5, 1.0, 2.0 and 4.0 μg/ml) was “increased sensitivity”.

With CC(=O)O[C@H]1C[C@@]2(C)[C@@H](C[C@@H](O)[C@H]3[C@@]4(C)CC[C@@H](O)[C@@H](C)[C@@H]4CC[C@@]32C)/C1=C(\CCC=C(C)C)C(=O)O [fusidic acid] the “change of sensitivity of E. coli strain” value ([1]; in the presence of 10 μg/ml vancomycin, fusidic acid at 200 and 400 μg/ml) was “increased sensitivity”.

With [Cl][Cr]([Cl])[Cl] [chromium chloride] the “change of sensitivity of E. coli strain” value ([1]; in the presence of 235 μg/ml sulfamethoxazole, chromium chloride at 200 and 400 μg/ml) was “increased sensitivity”.

With Nc1ccc(S(=O)(=O)Nc2nccs2)cc1 [sulfathiazole] the “PM response pattern (fingerprint) of cells exposed to the antimicrobial” value (shortened to “PM response pattern (fingerprint)”) [2] was “more closely resembled the multiple target antimicrobials”.

For CCn1cc(C(=O)O)c(=O)c2cc3c(cc21)OCO3 [oxolinic acid], the “clustering in dendrogram” value [2] was “clustered”.

O=C(N[C@H](CO)[C@H](O)c1ccc([N+](=O)[O-])cc1)C(Cl)Cl [chloramphenicol] was tested, and the “clustering in dendrogram” value [2] was “cluster”.

For CC(=O)OCC1=C(C(=O)O)N2C(=O)[C@@H](NC(=O)Cc3cccs3)[C@H]2SC1 [cephalothin], the “change of sensitivity of E. coli strain” value ([1]; in the presence of 10 μg/ml vancomycin, cephalothin at 10 and 20 μg/ml) was “increased sensitivity”, the “change of sensitivity of E. coli strain” value ([1]; in the presence of 235 μg/ml sulfamethoxazole, cephalothin at 5.0, 10 and 20 μg/ml) was “increased sensitivity” and the “clustering in dendrogram” value [2] was “cluster”.

In the case of [Cl][Ni][Cl] [nickel chloride], the “change of sensitivity of E. coli strain” value ([1]; in the presence of 235 μg/ml sulfamethoxazole, nickel chloride at 20 and 40 μg/ml) is reported as “increased sensitivity”.

In the case of CCn1cc(C(=O)O)c(=O)c2ccc(C)nc21 [nalidixic acid], the “change of sensitivity of E. coli strain” value ([1]; in the presence of 10 μg/ml vancomycin, nalidixic acid at 1.0, 2.0 and 4.0 μg/ml) is reported as “increased sensitivity” and the “clustering in dendrogram” value [2] is reported as “did not cluster with the other two DNA gyrase inhibiting chemicals”.

In the case of polymyxin B, the “PM response pattern (fingerprint)” value [2] is reported as “more closely resembled the multiple target antimicrobials”.

For C/C=C/C/C=C/CCC(=O)[C@H]1O[C@H]1C(N)=O [cerulenin], the “PM response pattern (fingerprint)” value [2] was “more closely resembled the multiple target antimicrobials”.

COc1cc(Cc2cnc(N)nc2N)cc(OC)c1OC [trimethoprim] was tested, and the “change of sensitivity of E. coli strain” value ([1]; in the presence of 10 μg/ml vancomycin, trimethoprim at 0.17, 0.33, 0.67 and 1.3 ng/ml) was “increased sensitivity” and the “change of sensitivity of E. coli strain” value ([1]; in the presence of 235 μg/ml sulfamethoxazole, trimethoprim at 0.17, 0.33, 0.67 and 1.3 ng/ml) was “increased sensitivity”.

For CO[C@@]1(NC(=O)Cc2cccs2)C(=O)N2C(C(=O)O)=C(COC(N)=O)CS[C@@H]21 [cefoxitin], the “change of sensitivity of E. coli strain” value ([1]; in the presence of 10 μg/ml vancomycin, cefoxitin at 0.75 and 1.5 μg/ml) was “increased sensitivity”.

For coumermycin, the “clustering in dendrogram” value [2] was “clustered”.

In the case of O=[N+]([O-])c1ncc[nH]1 [azomycin], the “change of sensitivity of E. coli strain” value ([1]; in the presence of 235 μg/ml sulfamethoxazole, azomycin at 0.2, 0.4, 0.8 and 1.6 μg/ml) is reported as “increased sensitivity”.

[Cl][Co][Cl] [cobalt chloride] was tested, and the “change of sensitivity of E. coli strain” value ([1]; in the presence of 235 μg/ml sulfamethoxazole, cobalt chloride 12 and 25 μg/ml) was “increased sensitivity”.
